Measurements taken from patent US7271260B2, “3,4-dihydroquinazoline derivatives as T-type calcium channel blockers and method of preparing the same” (Korea Institute of Science and Technology, priority 2004, dated 2007).
Where two headings read alike, the source gives them in different places.

What was measured:
[1] = target: T1, α1G T-type calcium channel (Rattus norvegicus, UniProt O54898); test: Whole cell patch clamp on HEK 293 cells expressing α1G T-type calcium channel; assay type: cell-based; conditions: for inhibition at 10 µM: HEK293; for channel inhibitory effect relative to Mibefradil (comparing IC50 values): HEK 293 cells (α1G), IC50 compared with Mibefradil; for IC50: read-out: IC50, HEK293 cells (α1G)
T1 construct: expressed in transfected cells; Perez-Reyes, University of Virginia
T1 sequence (O54898 whole entry): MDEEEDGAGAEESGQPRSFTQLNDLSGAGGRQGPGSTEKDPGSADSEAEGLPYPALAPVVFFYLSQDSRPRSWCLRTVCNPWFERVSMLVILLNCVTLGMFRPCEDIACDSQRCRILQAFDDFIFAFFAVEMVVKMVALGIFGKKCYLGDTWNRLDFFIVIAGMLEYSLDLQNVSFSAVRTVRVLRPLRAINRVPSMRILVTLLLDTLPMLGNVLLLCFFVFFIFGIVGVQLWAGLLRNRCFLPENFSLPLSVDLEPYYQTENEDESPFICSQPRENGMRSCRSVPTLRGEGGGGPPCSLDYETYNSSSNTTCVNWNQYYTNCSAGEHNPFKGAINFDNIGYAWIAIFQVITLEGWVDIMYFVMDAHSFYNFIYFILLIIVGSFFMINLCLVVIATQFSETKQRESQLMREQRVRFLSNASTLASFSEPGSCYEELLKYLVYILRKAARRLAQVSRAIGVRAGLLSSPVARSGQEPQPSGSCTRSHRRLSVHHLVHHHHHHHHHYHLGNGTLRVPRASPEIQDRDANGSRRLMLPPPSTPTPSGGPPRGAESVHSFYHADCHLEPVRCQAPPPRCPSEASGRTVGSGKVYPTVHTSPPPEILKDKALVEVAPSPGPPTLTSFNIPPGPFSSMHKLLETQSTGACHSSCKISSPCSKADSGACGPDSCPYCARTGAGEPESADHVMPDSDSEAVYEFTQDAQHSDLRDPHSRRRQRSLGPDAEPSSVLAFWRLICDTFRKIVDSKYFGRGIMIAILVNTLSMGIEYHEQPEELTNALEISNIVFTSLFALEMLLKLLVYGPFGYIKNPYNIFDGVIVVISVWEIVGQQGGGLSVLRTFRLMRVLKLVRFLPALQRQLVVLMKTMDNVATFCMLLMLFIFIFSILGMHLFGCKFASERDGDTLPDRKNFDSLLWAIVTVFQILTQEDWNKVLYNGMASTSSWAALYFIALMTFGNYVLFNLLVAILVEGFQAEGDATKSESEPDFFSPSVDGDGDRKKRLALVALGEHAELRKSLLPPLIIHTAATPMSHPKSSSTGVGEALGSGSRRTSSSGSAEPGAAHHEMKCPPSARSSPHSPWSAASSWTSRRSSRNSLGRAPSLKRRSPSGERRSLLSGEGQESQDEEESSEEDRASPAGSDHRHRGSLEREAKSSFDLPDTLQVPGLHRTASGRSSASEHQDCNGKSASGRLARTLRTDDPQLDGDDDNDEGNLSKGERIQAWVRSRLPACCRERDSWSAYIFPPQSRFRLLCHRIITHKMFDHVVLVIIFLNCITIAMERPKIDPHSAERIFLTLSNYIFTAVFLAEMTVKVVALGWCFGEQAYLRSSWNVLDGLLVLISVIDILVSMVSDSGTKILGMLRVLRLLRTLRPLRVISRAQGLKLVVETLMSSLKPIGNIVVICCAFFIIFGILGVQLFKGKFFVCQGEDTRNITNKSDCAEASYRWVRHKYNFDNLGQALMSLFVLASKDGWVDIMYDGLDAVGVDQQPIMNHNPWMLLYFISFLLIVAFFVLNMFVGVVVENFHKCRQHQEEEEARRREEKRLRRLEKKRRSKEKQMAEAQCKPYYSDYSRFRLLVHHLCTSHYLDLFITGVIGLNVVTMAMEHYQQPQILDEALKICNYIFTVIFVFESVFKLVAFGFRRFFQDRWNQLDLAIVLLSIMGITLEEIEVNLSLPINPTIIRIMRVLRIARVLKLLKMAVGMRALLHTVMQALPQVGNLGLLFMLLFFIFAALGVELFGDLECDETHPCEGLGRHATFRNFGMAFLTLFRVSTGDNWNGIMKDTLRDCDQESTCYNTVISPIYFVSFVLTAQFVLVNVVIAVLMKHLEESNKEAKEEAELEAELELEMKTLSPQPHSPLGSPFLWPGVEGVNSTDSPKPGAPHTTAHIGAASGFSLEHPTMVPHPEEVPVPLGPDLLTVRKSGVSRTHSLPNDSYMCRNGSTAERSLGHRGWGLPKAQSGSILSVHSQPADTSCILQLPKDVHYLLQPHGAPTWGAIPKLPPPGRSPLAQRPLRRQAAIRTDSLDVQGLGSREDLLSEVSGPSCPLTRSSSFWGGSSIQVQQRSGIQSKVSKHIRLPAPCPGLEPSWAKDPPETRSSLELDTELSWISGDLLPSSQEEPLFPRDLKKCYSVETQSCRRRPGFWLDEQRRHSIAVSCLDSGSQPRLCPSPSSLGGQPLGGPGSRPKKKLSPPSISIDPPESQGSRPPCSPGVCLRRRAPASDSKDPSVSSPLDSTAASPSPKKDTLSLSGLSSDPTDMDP
Method: HEK 293 cells were cultured in Dulbecco's modified Eagle's medium (DMEM) supplemented with 10% fetal bovine serum (FBS) and 1% penicillin/streptomycin (v/v) in 36.5° C. humidified incubator (95% air-5% CO2). The culture solution was replaced with a fresh medium every 3 to 4 days and the cultured cells were subjected to sub-culture every week. At this time, the culture solution was treated with G-418 (0.5 mg/ml) solution so that only HEK 293 cells expressing α1G T-type calcium channel can grow. The cells used for the T-type calcium channel activity assay were cultured on a cover slip coated with poly-L-lysine (0.5 mg/ml) whenever sub-cultured and their calcium channel activity was recorded 2 to 7 days after the cultivation. The current of the T-type calcium channel at a single cell level was measured according to an electrophysiological whole cell patch clamping method using EPC-9 amplifier (HEKA, German). At this time, a cell exterior solution [140 mM NaCl, 2 mM CaCl2, 10 mM HEPES (pH 7.4)] and a cell interior solution [KCl 130 mM, HEPES 10 mM, EGTA 11 mM, MgATP 5 mM (pH 7.4)] were employed. The inward current caused by the T-type calcium channel activation was measured according to a T-type calcium channel protocol activated at low current. Such current occurs when the cells were converted into a whole-cell recording mode by stabbing a microglass electrode having 3-4 MΩ resistance, which was filled with the cell interior solution into a single cell and depolarized at −30 mV (50 ms duration period) every 10 seconds with fixing membrane potential to −100 mV.
In order to confirm whether the cells and methods used in Test Example 2 are a suitable screening system for selecting T-type calcium channel blockers, the results obtained in Example 2 were compared with those of α1G T-type calcium channel study reported in a public document (Monteil, A. et al., J. Biol. Chem. 275, 6090-6100, 2000). […] Thus, the candidate compounds were subjected to a test for their inhibitory effects on the T-type calcium channel according to the screening system of the present invention, as follows. Each compound was dissolved in 100% dimethylsulfoxide (DMSO) to prepare 10 mM stock solution. The inhibitory effect on the T-type calcium channel current was examined in 10 μM sample solution (containing 0.1% DMSO) prepared by diluting the stock solution by 1000-fold. The cells were treated with each compound at a concentration of 10 μM for 30 to 60 sec with the cell exterior solution.

[2] = system: N-type (HVA) Ca2+ channel; test: Patch clamp of high voltage-activated calcium current in MPG (major pelvic ganglion) neurons; assay type: cell-based, rat; conditions: 10 μM; for selectivity for the sub-types of the calcium channel (T-type LVA vs N-type HVA): from Table 3; for Inhibitory effect, Ca2+ channel N-type (HVA): MPG neuron, n.i. = no inhibitory effect
Method: In order to examine the selectivity of the compound of the present invention for other ion channels, the inhibitory effects of KYS05001, KYS05041 and KYS05042 on […] and high voltage-activated Ca2+ channel (HVA) were measured according to a conventional method (Lee, J.-H. et al., J. Neurophysiol. 2002, 87, 2844-2850) using MPG (major pelvic ganglion).
Male Sprague-Dawley rats having about 250 g of an average body weight were employed as experimental animals. After the rats were anesthetized with sodium pentobarbital (50 mg/kg, i.p.), the abdomen was cut open immediately. MPG located on the left side of the prostate was extracted and then transferred in cold (4° C.) Hank's balanced salt solution (HBSS, GibcoBRL). The connective tissue encompassing the ganglion was stripped therefrom and a small gap was made carefully on the naked ganglion with a sharp knife. Then, the ganglion was cultured in 10 ml of modified Earle's balanced salt solution (EBSS, pH 7.4, GibcoBRL) supplemented with 0.7 mg/ml of collagenase (type D), 0.3 mg/ml of trypsin and 0.1 mg/ml of DNAse type I at 35° C. for 1 hour (Zhu et al., J. Physiol. Lond. 1995, 489, 363-375). At this time, 3.6 g/l of glucose and 10 mM HEPES were added to EBSS. After the cultivation was completed, the culture flask was shaken to separate call clusters into a single nerve cell and subjected to centrifugation at 1000 rpm with a clinical centrifuge (International Equipment Company, Mass., U.S.A.). The separated single nerve cells were re-suspended in MEM (GibcoBRL) supplemented with 10% fetal bovine serum, 1% glutamine and 1% penicillin/streptomycin. They were then spread on a polystyrene culture dish (35 mm) coated with poly-L-lysine. The culture dish was incubated at 37° C. humidified incubator (95% air-5% CO2) and the cells were used in the following experiment within 24 hours after the separation.
The voltage-dependent calcium and sodium current were recorded according to a typical patch clamping method using a patch clamp amplifier (Axopatch 1D, Axon Instruments, Foster City, Calif., U.S.A.) at a whole-cell ruptured configuration (Hamill et al., Pflügers Arch. 1981, 391, 85-100). An electrode was made from a borosilicate glass capillary tube (outer diameter; 1.65 mm, inner diameter; 1.2 mm, Corning 7052, Garner Glass Co., Claremont, Calif., U.S.A.) using P-97 Flaming-Brown micropipette puller (Sutter Instrument Co., Novato, Calif., U.S.A.) and forged smoothly by heating with a microforge. The electrode showing 1˜3 MΩ of resistance when filled with a solution was used for the following experiment. The culture dish containing the nerve cells was placed on an inverted microscope and the cell exterior solution was flowed into the dish at a flow rate of about 1˜2 ml/min. The membrane capacitance and series resistance were corrected by 80% or more with an amplifier. The voltage generation and record of calcium current were carried out using S4 software (provided by Dr. Stephen R. Ikeda, National Institute on Alcohol Abuse and Alcoholism, NIH, USA) equipped in Macintosh computer, which was connected to an analogue/digital converter (Digidata 1200, Axon Instruments Co.). The calcium current, which passed through a low band pass filter at 2˜5 kHz, was stored in Macintosh computer and analyzed with IGOR PRO (Wave-Metrics, Lake Oswego, Oreg., U.S.A.). All the experiments were conducted at a room temperature ranging from 20 to 22° C.
The electrode for measuring the calcium current was filled with the solution comprising 120 mM N-methyl-D-glucamine (NMG) methanesulfonate (MS), 20 mM tetraethylammonium (TEA)-MS, 20 mM HCl, 11 mM EGTA, 10 mM HEPES, 1 mM CaCl2, 4 mM MgATP, 0.3 mM Na2GTP and 14 mM tris-phosphocreatine (pH 7.2, 290 mOsm). The extracellular infusion fluid was composed of 140 mM MS, 145 mM TEA-OH, 10 mM HEPES, 15 mM glucose, 10 mM CaCl2 and 0.0003 mM tetrodotoxin (TTX, pH 7.4, 320 mOsm). […]

[3] = HEK 293 cells expressing α1G, 30 to 60 sec treatment, read-out: inhibitory effect on peak current, HEK293 cells (α1G) at 10 μM
[4] = Table 3 title says MPG neuron, values equal HEK 293 (α1G) values of Table 2, read-out: Inhibitory effect, Ca2+ channel T-type (LVA)

| SMILES | inhibition at 10 µM [1, 3] [%] | inhibition at 10 µM [1, 4] [%] | channel inhibitory effect relative to Mibefradil (comparing IC50 values) [1] | IC50 ([1]; HEK 293 cells expressing α1G) [µM] | selectivity for the sub-types of the calcium channel (T-type LVA vs N-type HVA) [2] | Inhibitory effect, Ca2+ channel N-type (HVA) [2] |
| --- | --- | --- | --- | --- | --- | --- |
| O=C(CC1c2ccccc2N=C(N2CCCCC2)N1c1ccccc1)NCc1ccccc1 (stereo not drawn) [KYS05001] | 90.1 | 90.1 | almost the same calcium channel inhibitory effect as Mibefradil | 0.9 | selectively inhibited only the T-type (LVA) calcium channel | n.i.^b |
| O=C(CC1c2ccccc2N=C(N2CCCCC2)N1c1ccccc1)NCc1ccc(NS(=O)(=O)c2ccc(F)cc2)cc1 (stereo not drawn) [KYS05042, 4-{N-[4-(4-fluorobenzenesulfonylamido)benzyl]acetamido}-3-phenyl-2-(piperidine-1-yl)-3,4-dihydroquinazoline] | 89 | 89 | ~4.2 fold | 0.2 | relatively lower selectivity | >90% |
| Cc1ccc(S(=O)(=O)Nc2ccc(CNC(=O)CC3c4ccccc4N=C(N4CCCCC4)N3c3ccccc3)cc2)cc1 (stereo not drawn) [KYS05041, 4-{N-[4-(4-methylbenzenesulfonylamido)benzyl]acetamido}-3-phenyl-2-(piperidine-1-yl)-3,4-dihydroquinazoline] | 89.9 | 89.9 | about 3.4 fold | 0.25 | relatively lower selectivity | >89% |
